In the supplement of paper PMC9663587:

Tests used:
AZD1775 = compound: C=CCn1c(=O)c2cnc(Nc3ccc(N4CCN(C)CC4)cc3)nc2n1-c1cccc(C(C)(C)O)n1 [AZD1775]
Cediranib/AZD2171 = compound: COc1cc2c(Oc3ccc4[nH]c(C)cc4c3F)ncnc2cc1OCCCN1CCCC1 [Cediranib/AZD2171]
Saracatinib/AZD0530 = compound: CN1CCN(CCOc2cc(OC3CCOCC3)c3c(Nc4c(Cl)ccc5c4OCO5)ncnc3c2)CC1 [Saracatinib/AZD0530]
[1] = compound: CCCCOc1c(C(=O)c2c(F)cc(C)cc2F)c[nH]c2nncc1-2
Alpelisib/BYL719 = compound: Cc1nc(NC(=O)N2CCC[C@H]2C(N)=O)sc1-c1ccnc(C(C)(C)C(F)(F)F)c1 [Alpelisib/BYL719]
[2] = compound: CC(=O)Nc1cccc(-n2c(=O)n(C3CC3)c(=O)c3c(Nc4ccc(I)cc4F)n(C)c(=O)c(C)c32)c1
[3] = compound: COc1ccc2c(c1)[C@]1(C[C@H]1c1ccc3c(/C=C/c4ccc(CN5C[C@@H](C)O[C@@H](C)C5)cc4)n[nH]c3c1)C(=O)N2
BVD523 = compound: CC(C)Nc1cc(-c2c[nH]c(C(=O)N[C@H](CO)c3cccc(Cl)c3)c2)c(Cl)cn1 [BVD523]
[4] = compound: CO[C@@H](C)Cn1c(=O)n(C)c2cnc3ccc(-c4cncc(C(C)(C)O)c4)cc3c21
THZ1 [5] = compound: T1, CN(C)C/C=C/C(=O)Nc1ccc(C(=O)Nc2cccc(Nc3ncc(Cl)c(-c4c[nH]c5ccccc45)n3)c2)cc1 [THZ1]
THZ531 [6] = compound: T2, CN(C)C/C=C/C(=O)Nc1ccc(C(=O)N2CCC[C@@H](Nc3ncc(Cl)c(-c4c[nH]c5ccccc45)n3)C2)cc1 [THZ531]
Rucaparib = compound: CNCc1ccc(-c2[nH]c3cc(F)cc4c3c2CCNC4=O)cc1 [Rucaparib]
LEE011/Ribociclib = compound: CN(C)C(=O)c1cc2cnc(Nc3ccc(N4CCNCC4)cn3)nc2n1C1CCCC1 [LEE011/Ribociclib]; assay: increase in dead-cell fraction, 72 h; higher = more death;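 note: breast cancer cell lines in 384-well plates, stained with Hoechst plus LIVE/DEAD far red dye and imaged, cells above an LDR intensity threshold counted dead, Hoechst-negative corpses included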
BSJ-03-123 = compound: CC(=O)c1c(C)c2cnc(Nc3ccc(N4CCN(CCOCCOCCOCCNC(=O)COc5cccc6c5C(=O)N(C5CCC(=O)NC5=O)C6=O)CC4)cn3)nc2n(C2CCCC2)c1=O [BSJ-03-123]; assay: as above
[7] = compound: CCc1cnn2c(NCc3ccc[n+]([O-])c3)cc(N3CCCC[C@H]3CCO)nc12; assay: as above
[8] = compound: CC(=O)c1c(C)c2cnc(Nc3ccc(N4CCNCC4)cn3)nc2n(C2CCCC2)c1=O; assay: as above
YKL-5-124 = compound: C=CC(=O)Nc1ccc(C(=O)Nc2[nH]nc3c2CN(C(=O)N[C@H](CN(C)C)c2ccccc2)C3(C)C)cc1 [YKL-5-124]; assay: as above
THZ1 [9] = compound: T1, THZ1; assay: as above
THZ531 [10] = compound: T2, THZ531; assay: as above
Neratinib/HKI272 = compound: CCOc1cc2ncc(C#N)c(Nc3ccc(OCc4ccccn4)c(Cl)c3)c2cc1NC(=O)/C=C/CN(C)C [Neratinib/HKI272]; assay: as above
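Throughout, for GR50, 72 h: breast cancer and non-malignant breast epithelial cell lines, Deep Dye Drop or Dye Drop imaging, nine half-log doses, GR normalized to time-zero plates and DMSO-only controls.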

Cell Line: PDXHCI002
- GR50, 72 h (AZD1775): 0.23 µM
- GR50, 72 h (Cediranib/AZD2171): 1.47 µM
- GR50, 72 h (Saracatinib/AZD0530): 0.0805 µM
- GR50, 72 h [1]: 3.29 µM
- GR50, 72 h (Alpelisib/BYL719): > 10 µM
- GR50, 72 h [2]: > 1 µM
- GR50, 72 h [3]: 0.00689 µM
- GR50, 72 h (BVD523): 4.27 µM
- GR50, 72 h [4]: 1.82 µM
- GR50, 72 h (THZ1 [5]): 0.0115 µM
- GR50, 72 h (THZ531 [6]): 0.0493 µM
- GR50, 72 h (Rucaparib): > 10 µM
- increase in dead-cell fraction (LEE011/Ribociclib; 0.001 µM): -0.0323
- increase in dead-cell fraction (LEE011/Ribociclib; 0.003162 µM): -0.0237
- increase in dead-cell fraction (LEE011/Ribociclib; 0.01 µM): -0.0167
- increase in dead-cell fraction (LEE011/Ribociclib; 0.03162 µM): -0.0095
- increase in dead-cell fraction (LEE011/Ribociclib; 0.1 µM): -0.0015
- increase in dead-cell fraction (LEE011/Ribociclib; 0.3162 µM): -0.0029
- increase in dead-cell fraction (LEE011/Ribociclib; 1 µM): -0.0185
- increase in dead-cell fraction (LEE011/Ribociclib; 3.162 µM): 0.0196
- increase in dead-cell fraction (LEE011/Ribociclib; 10 µM): 0.0853
- increase in dead-cell fraction (BSJ-03-123; 0.001 µM): -0.0304
- increase in dead-cell fraction (BSJ-03-123; 0.003162 µM): -0.0395
- increase in dead-cell fraction (BSJ-03-123; 0.01 µM): -0.0247
- increase in dead-cell fraction (BSJ-03-123; 0.03162 µM): 0.0116
- increase in dead-cell fraction (BSJ-03-123; 0.1 µM): 0.0131
- increase in dead-cell fraction (BSJ-03-123; 0.3162 µM): 0.02
- increase in dead-cell fraction (BSJ-03-123; 1 µM): 0.121
- increase in dead-cell fraction (BSJ-03-123; 3.162 µM): 0.127
- increase in dead-cell fraction (BSJ-03-123; 10 µM): 0.299
- increase in dead-cell fraction ([7]; 0.0001 µM): -0.0076
- increase in dead-cell fraction ([7]; 0.0003162 µM): -0.0064
- increase in dead-cell fraction ([7]; 0.001 µM): -0.0055
- increase in dead-cell fraction ([7]; 0.003162 µM): -0.0087
- increase in dead-cell fraction ([7]; 0.01 µM): -0.0047
- increase in dead-cell fraction ([7]; 0.03162 µM): 0.451
- increase in dead-cell fraction ([7]; 0.1 µM): 0.504
- increase in dead-cell fraction ([7]; 0.3162 µM): 0.458
- increase in dead-cell fraction ([7]; 1 µM): 0.44
- increase in dead-cell fraction ([8]; 0.0003162 µM): -0.0007
- increase in dead-cell fraction ([8]; 0.001 µM): 0.0001
- increase in dead-cell fraction ([8]; 0.003162 µM): -0.0134
- increase in dead-cell fraction ([8]; 0.01 µM): -0.0207
- increase in dead-cell fraction ([8]; 0.03162 µM): -0.015
- increase in dead-cell fraction ([8]; 0.1 µM): -0.0124
- increase in dead-cell fraction ([8]; 0.3162 µM): -0.0203
- increase in dead-cell fraction ([8]; 1 µM): -0.0173
- increase in dead-cell fraction ([8]; 3.162 µM): -0.0092
- increase in dead-cell fraction (YKL-5-124; 0.001 µM): 0.156
- increase in dead-cell fraction (YKL-5-124; 0.003162 µM): 0.144
- increase in dead-cell fraction (YKL-5-124; 0.01 µM): 0.185
- increase in dead-cell fraction (YKL-5-124; 0.03162 µM): 0.172
- increase in dead-cell fraction (YKL-5-124; 0.1 µM): 0.186
- increase in dead-cell fraction (YKL-5-124; 0.3162 µM): 0.234
- increase in dead-cell fraction (YKL-5-124; 1 µM): 0.186
- increase in dead-cell fraction (YKL-5-124; 3.162 µM): 0.255
- increase in dead-cell fraction (YKL-5-124; 10 µM): 0.182
- increase in dead-cell fraction (THZ1 [9]; 0.0001 µM): -0.0106
- increase in dead-cell fraction (THZ1 [9]; 0.0003162 µM): -0.015
- increase in dead-cell fraction (THZ1 [9]; 0.001 µM): -0.01
- increase in dead-cell fraction (THZ1 [9]; 0.003162 µM): -0.0152
- increase in dead-cell fraction (THZ1 [9]; 0.01 µM): 0.0629
- increase in dead-cell fraction (THZ1 [9]; 0.03162 µM): 0.221
- increase in dead-cell fraction (THZ1 [9]; 0.1 µM): 0.272
- increase in dead-cell fraction (THZ1 [9]; 0.3162 µM): 0.269
- increase in dead-cell fraction (THZ1 [9]; 1 µM): 0.282
- increase in dead-cell fraction (THZ531 [10]; 0.0001 µM): -0.0252
- increase in dead-cell fraction (THZ531 [10]; 0.0003162 µM): -0.029
- increase in dead-cell fraction (THZ531 [10]; 0.001 µM): -0.0123
- increase in dead-cell fraction (THZ531 [10]; 0.003162 µM): 0.0054
- increase in dead-cell fraction (THZ531 [10]; 0.01 µM): 0.0146
- increase in dead-cell fraction (THZ531 [10]; 0.03162 µM): 0.0278
- increase in dead-cell fraction (THZ531 [10]; 0.1 µM): 0.241
- increase in dead-cell fraction (THZ531 [10]; 0.3162 µM): 0.379
- increase in dead-cell fraction (THZ531 [10]; 1 µM): 0.263
- increase in dead-cell fraction (Neratinib/HKI272; 0.0003162 µM): 0.0061
- increase in dead-cell fraction (Neratinib/HKI272; 0.001 µM): -0.001
- increase in dead-cell fraction (Neratinib/HKI272; 0.003162 µM): -0.0049
- increase in dead-cell fraction (Neratinib/HKI272; 0.01 µM): -0.0162
- increase in dead-cell fraction (Neratinib/HKI272; 0.03162 µM): 0.0001
- increase in dead-cell fraction (Neratinib/HKI272; 0.1 µM): -0.0122
- increase in dead-cell fraction (Neratinib/HKI272; 0.3162 µM): 0.0151
- increase in dead-cell fraction (Neratinib/HKI272; 1 µM): 0.0548
- increase in dead-cell fraction (Neratinib/HKI272; 3.162 µM): 0.31
